From US20170037030A1, “AUTOTAXIN INHIBITORS” (NOVARTIS AG, priority 2014, published 2017)

Target: T1, Recombinant human ATX (Homo sapiens, UniProt Q13822)
T1 construct: made in house; host or cells: human embryonic kidney (HEK) cells
Test: ATX inhibition assay (released choline, Amplex Red fluorescence)
Assay type: biochemical
Conditions: ATX 10 nM, LPC 18:1 10 μM, pre-incubated with ATX at 37° C. for 20 minutes; mean of n≧2
Protocol: Reagents—LPC (oleoyl (18:1)) was purchased from Avert Polar Lipids (Alabaster, Ala.) and solubilized in methanol to 20 mM. Amplex Red was obtained from Invitrogen Life Technologies (Paisley, UK) and dissolved in DMSO to 10 mM. Choline oxidase and horseradish peroxidase (HRP) were obtained from Sigma Aldrich (Dorset, UK) and dissolved in HBSS to 20 U/ml and 200 U/ml respectively. All reagents were stored at −20° C. in single use aliquots. All experimental measurements were performed in assay buffer made up immediately prior to use (HBSS, 0.01% BSA essentially fatty acid free). […]
Method—All experimental measurements were performed in black 384 well polystyrene (low volume, round bottom, Corning (3676)) plates. PerkinElmer EnVision (Fluorescence Intensity/Absorbance Monochromator) or Tecan Infinite 200 PRO series plate reader was used to detect change in fluorescent intensity.
Assessing ATX inhibition—ATX activity was determined by measurement of released choline in reactions containing ATX (10 nM), choline oxidase (0.1 U/ml), HRP (100 U/ml), amplex red (50 μM) and LPC 18:1 (10 μM). […] The liberated choline was measured from changes in fluorescence intensity (Aex 530 nm, Aem 590 nm) of the product resurofin at 37° C. every 2 minutes over a 40-minute period. ATX activity was measured as a slope of the linear portion of the progress curve, typically between 14 to 24 minutes. […]

IC50 [nM] | Compound
70 | O=C(CCC(=O)c1c[nH]nn1)NC1CCN(C(=O)OCc2cc(Cl)cc(Cl)c2)CC1 [Example 1, 3,5-dichlorobenzyl 4-(4-oxo-4-(1H-1,2,3-triazol-4-yl)butanamido)piperidine-1-carboxylate]
10 | O=C(CCC(O)c1c[nH]nn1)NC1CCN(C(=O)OCc2cc(Cl)cc(Cl)c2)CC1 (centres unmarked) [Example 2, 3,5-dichlorobenzyl 4-(4-hydroxy-4-(1H-1,2,3-triazol-4-yl)butanamido)piperidine-1-carboxylate]
